# In patent US9938249B2, “Anti-amyloid compounds containing benzofurazan” (Treventis Corporation, priority 2014, dated 2018):
# Experiments:
# [1] = molecular target: Terminally biotinylated beta-amyloid (Aβ42) (Homo sapiens, UniProt P05067); test: Aβ42 biotinylated (biotin-AB) oligomerization assay, NeutrAvidin capture ELISA; type: biochemical; details: approximate value; 1 hr oligomerization at room temperature; read-out: IC50 Aβ 42-bio
# In short: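 Biotin-Aβ42, pretreated with HFIP/TFA to remove seeds, oligomerized 1 h at room temperature with compound in 20 mM sodium phosphate pH 7.5, 150 mM NaCl (DMSO up to 1%). Oligomers captured on NeutrAvidin plates, detected with streptavidin-HRP/TMB at 450 nm; IC50 approximate, in µM.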
# Aβ40 = Aβ40 (Homo sapiens, UniProt P05067); test: ThT Aβ aggregation assay (kinetic Thioflavin T fluorescence); type: biochemical; details: 20 μM Aβ, DMSO control at 80 hr = 0% inhibition, number in parenthesis = compound ID 1027 in that experiment; for inhibition at 10 µM: read-out: % inhib Thioflavin T Aβ 40 10 μM
# Method: Preparation of Aβ40 Stock Solutions
# Aβ40 (1.0 mg) was pre-treated in a 1.5 mL microfuge tube with HFIP (1 mL) and sonicated for 20 min to disassemble any pre-formed Aβ aggregates. The HFIP was removed with a stream of argon and the Aβ dissolved in Tris base (5.8 mL, 20 mM, pH ˜10). The pH was adjusted to 7.4 with concentrated HCl (˜10 μL) and the solution filtered using a syringe filter (0.2 μm) before being used.
# The kinetic ThT assay for Aβ aggregation is similar to that of Chalifour et al (Chalifour et al, 2003, J. Biol. Chem. 278:34874-81). Briefly, pre-treated Aβ40 or Aβ42 (40 μM in 20 mM Tris, pH 7.4) was diluted with an equal volume of 8 μM Thioflavin T (ThT) in Tris (20 mM, pH 7.4, 300 mM NaCl). Aliquots of Aβ/ThT (200 μL) were added to wells of a black polystyrene 96-well plate, followed by 2 μL of a compound in DMSO (variable concentration), or DMSO alone (controls). Incubations were performed in triplicate and were taken to contain 20 μM Aβ, various concentration of compound in 20 mM Tris, pH 7.4, 150 mM NaCl, 1% DMSO. Plates were covered with clear polystyrene lids and incubated at 37° C. in a Tecan Genios microplate reader.
# Analysis of ThT and ThS Aggregation Assays
# Fluorescence readings (λex=450 nm, λem=480 nm) were taken every 15 min., after first shaking at high intensity for 15 s and allowing to settle for 10 s before each reading. Active compounds attenuated the increase in fluorescence over time that occurred in controls. In FIGS. 1-7, the time this procedure was performed extended to 80 hours (rightmost part of X-axis), at which point fluorescence increase generally reached an asymptote. Applying a definition of DMSO control at 80 hr as 100% aggregation (0% inhibition) and DMSO control at 0 hr as 0% aggregation (100% inhibition), a % inhibition score where higher is better can be calculated for a given concentration of compound. By repeating this procedure over several concentrations, a […] (IC50) can be measured, as is given in the table below for some compounds.
# Sequence of Terminally biotinylated beta-amyloid (Aβ42) (P05067 672-713, species assumed): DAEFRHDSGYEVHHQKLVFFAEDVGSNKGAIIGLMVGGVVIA
# Sequence of Aβ40 (P05067 672-711, species assumed): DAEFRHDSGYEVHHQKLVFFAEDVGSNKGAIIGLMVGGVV
Structure (SMILES),IC50 [1],inhibition at 10 µM (Aβ40; compound 10 μM),% inhib Thioflavin T Aβ 40 10 μM (Aβ40; compound 10 μM),% inhib Thioflavin T Aβ 40 (5 μm) (Aβ40; compound 5 μm (so in the source))
OC(c1cc(-c2cc(N3CC(CN4CCCC4)C3)c3nonc3c2)cs1)C(F)(F)F (centres unmarked) [compound 1537],3.5 µM,–,74%,71%
O=C(c1cc(N2CC(CN3CCCC3)C2)c2nonc2c1)C(F)(F)F [compound 1477],1.83 µM,30%,–,–
COc1ccc(-c2cc(N3CC(CN4CCCC4)C3)c3nonc3c2)cc1Cl [compound 1492],4.8 µM,22%,–,–

# Continued by falling IC50 [1], values first:
IC50 [1],inhibition at 10 µM (Aβ40; compound 10 μM),% inhib Thioflavin T Aβ 40 10 μM (Aβ40; compound 10 μM),% inhib Thioflavin T Aβ 40 (5 μm) (Aβ40; compound 5 μm (so in the source)),Structure (SMILES)
12 µM,77%,–,–,CC(=O)c1ccc(-c2cc(N3CC(CN4CCCC4)C3)c3nonc3c2)cc1 [compound 1512]
5.8 µM,60%,–,–,c1n[nH]cc1-c1cc(N2CC(CN3CCCC3)C2)c2nonc2c1 [compound 1526]
